Laboratory results as given in publication PMC7857491, “Quantification and characterization of the 5′ exonuclease activity of the lysosomal nuclease PLD3 by a novel cell-based assay” (The Journal of Biological Chemistry, 2020).

Target: Phospholipase D3 (PLD3) (Homo sapiens, UniProt Q8IV08)
Sequence (Q8IV08 whole entry): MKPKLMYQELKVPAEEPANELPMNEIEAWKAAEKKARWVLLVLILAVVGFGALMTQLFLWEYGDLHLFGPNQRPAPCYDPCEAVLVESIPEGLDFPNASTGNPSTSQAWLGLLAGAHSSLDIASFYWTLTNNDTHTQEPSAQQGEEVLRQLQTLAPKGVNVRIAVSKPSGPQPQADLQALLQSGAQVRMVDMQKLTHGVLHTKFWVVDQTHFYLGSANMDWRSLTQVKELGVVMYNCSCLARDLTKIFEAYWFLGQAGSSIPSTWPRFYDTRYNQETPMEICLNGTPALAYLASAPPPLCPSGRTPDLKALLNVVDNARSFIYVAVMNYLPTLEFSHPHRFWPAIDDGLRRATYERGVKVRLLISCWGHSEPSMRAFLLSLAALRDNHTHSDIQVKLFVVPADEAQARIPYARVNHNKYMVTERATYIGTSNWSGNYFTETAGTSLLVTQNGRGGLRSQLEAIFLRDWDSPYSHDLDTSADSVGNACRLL

Compound `[O]=[V]([OH])([OH])[OH]` [orthovanadate] has an IC50 of 10 µM.
